Results on 7 compounds are retold here after US20210330611A1, “THERAPY FOR NEUROLOGICAL DISEASES/DISORDERS” (priority 2020, published 2021).

Where “and” joins values, the source holds several entries; their conditions need not be identical. Identical values can stand only once. Like-named read-outs stand apart in the source and are kept apart here.

The test system of data set [1] is fibrin- and LPS-induced microglia activation. The experiment in a line: cells. In kind it is cell-based, rat. Conditions: for inhibition at 10 µM: Rattus norvegicus.
Data set [2] is described as follows: in vitro. Conditions: rat.
Data set [3] is described as follows: in vitro. Conditions: rat, Cell Toxicity IC50 (uM) [cFib assay].
In data set [4] the test system is primary rat microglia. The experiment in a line: Cell toxicity (dead cells, size <150 μm2) in coated fibrin (cFib) assay.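 For Fibrin % cell toxicity: share of dead cells sized under 150 µm2 at 10 µM in fibrin-stimulated microglia HTS.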 Conditions: primary microglia HTS, fibrin stimulation; decreased size (<150 μm^2) as marker of toxicity.
Data set [5] relates to fibrin-induced microglia activation. Put plainly: Image-based assay of fibrin-induced microglia activation (HTS and dose response). In kind it is cell-based, rat. Conditions: for IC50 / inhibition at 10 µM: Rattus norvegicus, Microglia; for inhibition at 10 µM: primary microglia HTS, fibrin stimulation, increased cell size (>800 μm^2) as marker of activation, read-out: Fibrin % inhibition.

Data set [6] relates to LPS-induced microglia activation. Put plainly: Image-based assay of LPS-induced microglia activation (HTS and dose response). Format: cell-based, rat. Conditions: Rattus norvegicus, Microglia; for inhibition at 10 µM: primary microglia HTS, LPS stimulation, increased cell size (>800 μm^2) as marker of activation, read-out: LPS % inhibition.
The test system of data set [7] is primary rat microglia. Put plainly: Cell toxicity (dead cells, size <150 μm2) in LPS assay. Conditions: for LPS % cell toxicity: primary microglia HTS, LPS stimulation, decreased size (<150 μm^2) as marker of toxicity; for IC50: read-out: Cell Toxicity IC50 (uM) [LPS assay], LPS assay.
The mark [8] stands for this setting: HTS of 1907 compounds, quadrant by fibrin and LPS inhibition.
Where [9] appears, read: Microglia, HTS hit classification, read-out: Hit.
[10] abbreviates: hit classification in microglia HTS, read-out: Cherry-picked Hit (Suppl. Table 7).
Where [11] appears, read: quadrant by fibrin and LPS inhibition in HTS of 1907 compounds.
Setting [12] is: 48 h, Table 1, dose response 0.001-20 μM, triplicates, primary rat microglia, 48 h, read-out: Fibrin IC50.
The mark [13] stands for this setting: dose response, fibrin-induced microglia activation, read-out: Fibrin IC50.
Where [14] appears, read: fibrin-induced microglia activation, dose response, read-out: Fibrin IC50 (uM) (Suppl. Table 7).
Where [15] appears, read: 48 h, Table 1, dose response 0.001-20 μM, triplicates, primary rat microglia, 48 h, read-out: LPS IC50.
Where [16] appears, read: LPS-induced microglia activation, dose response, read-out: LPS IC50 (uM) (Suppl. Table 7).
[17] abbreviates: dose response, LPS-induced microglia activation, read-out: LPS IC50.
Setting [18] is: Microglia, Table 3, read-out: Cherry-picked Hit (Suppl. Table 7).
Setting [19] is: Table 3, read-out: Fibrin IC50 (uM) (Suppl. Table 7).
Setting [20] is: Table 3, read-out: LPS IC50 (uM) (Suppl. Table 7).

For `CC(=O)O[C@H]1C[C@@]2(C)[C@@H](C[C@@H](O)[C@H]3[C@@]4(C)CC[C@@H](O)[C@@H](C)[C@@H]4CC[C@@]32C)/C1=C(\CCC=C(C)C)C(=O)O` [Fusidic acid, reference compound], the “Quadrant (FIG. 5b)” value in data set [1] (setting [8]) is listed as “Q2”; in data set [1] (Table 1, screen at 10 μM), “Q2”; in data set [1] (setting [11]), “Q2”. Besides, the inhibition at 10 µM in data set [1] (setting [9]) is over 50%; in data set [1] (setting [10]) it was over 50%; in data set [5], 77%; in data set [6] (48 h) it was 74%. Further, the IC50 in “in vitro [2]” was over 20 µM; in the data set “in vitro [3]” (cFib assay), over 20 µM; in data set [5] (setting [12]), 19 µM; in data set [5] (setting [13]) it was 19 µM; in data set [5] (setting [14]), 19 µM; in data set [6] (setting [15]), over 20 µM. For the same compound, the IC50 in data set [6] (setting [16]) and in data set [6] (setting [17]) was over 20 µM in each case. In the data set with primary rat microglia [4], the “Fibrin % cell toxicity” value is listed as 1%. For the same compound, the “LPS % cell toxicity” value with primary rat microglia [7] was found to be 2%.

Turning to `O=C1C=C2C=C[C@@H]3C[C@@]2(O1)[C@H]1CCCCN31` [Securinine, reference compound], the “Quadrant (FIG. 5b)” value in data set [1] (setting [8]) is “Q2”; in data set [1] (Table 1, screen at 10 μM), “Q2”; in data set [1] (Table 3, screen at 10 μM), “Q2”; in data set [1] (setting [11]), “Q2”. Besides, the inhibition at 10 µM in data set [1] (setting [18]) is over 50%; in data set [1] (setting [9]), over 50%; in data set [5], 104%; in data set [6] (48 h), 106%. Further, the IC50 is 12 µM in the data set “in vitro [2]”; over 20 µM in “in vitro [3]” (Table 3); over 20 µM in the data set “in vitro [3]” (cFib assay); 2 µM in data set [5] (setting [12]); 2 µM in data set [5] (setting [19]); 2 µM in data set [5] (setting [13]). Moreover, the IC50 in data set [5] (setting [14]) was determined as 2 µM; in data set [6] (setting [15]) it was 6 µM; in data set [6] (setting [16]), 6 µM; in data set [6] (setting [20]) it was 6 µM; in data set [6] (setting [17]), 6 µM. Moreover, in the data set on primary rat microglia [4], the “Fibrin % cell toxicity” value is on record as 2%. In addition, the “Fibrin Selectivity” value in data set [5] is listed as 3. The “Fibrin Selectivity (LOG10)” value in data set [5] came to 0.40. Moreover, the “LPS % cell toxicity” value in the data set with primary rat microglia [7] worked out at 1%.

Regarding `C[C@]12C=CC(=O)C=C1CC[C@@H]1[C@@H]2C(=O)C[C@@]2(C)[C@H]1CC[C@]2(O)C(=O)CO` [Prednisone, reference compound], the “Quadrant (FIG. 5b)” value in data set [1] (setting [8]) was “Q3”; in data set [1] (Table 1, screen at 10 μM) it was “Q3”; in data set [1] (Table 3, screen at 10 μM), “Q3”; in data set [1] (setting [11]) it was “Q3”. For the same compound, the inhibition at 10 µM in data set [1] (setting [18]) is over 50%; in data set [1] (setting [9]), over 50%; in data set [5], 66%; in data set [6] (48 h), 45%. Further, the IC50 (in the data set “in vitro [2]”; in the data set “in vitro [3]” (Table 3); in the data set “in vitro [3]” (cFib assay); in data set [6] (setting [15]); in data set [6] (setting [16]); in data set [6] (setting [20])) was over 20 µM throughout. Besides, the IC50 (in data set [6] (setting [17]); with primary rat microglia [7]) was over 20 µM throughout. For the same compound, the “Fibrin % cell toxicity” value in the data set with primary rat microglia [4] was 1% and 2%. The “Fibrin Selectivity” value in data set [5] came to 6. Moreover, the “LPS % cell toxicity” value in the data set with primary rat microglia [7] is 1% and 0%.

With `C[C@]12CCC(=O)C=C1CC[C@@H]1[C@@H]2[C@@H](O)C[C@@]2(C)[C@H]1CC[C@]2(O)C(=O)CO` [Hydrocortisone, reference compound], the “Quadrant (FIG. 5b)” value in data set [1] (setting [8]) is recorded as “Q2”; in data set [1] (Table 1, screen at 10 μM), “Q2”; in data set [1] (Table 2, screen at 10 μM), “Q2”; in data set [1] (Table 3, screen at 10 μM) it was “Q2”; in data set [1] (microglia HTS, Table 6) it was “Q2”; in data set [1] (setting [11]), “Q2”. Moreover, the inhibition at 10 µM in data set [1] (setting [18]) was over 50%; in data set [1] (setting [9]), over 50%; in data set [5], 104%. The Activity entry in data set [1] (Table 7, fib = fibrin, LPS, tox = toxicity) was “fib/LPS”. The IC50 in the data set “in vitro [2]” is over 20 µM; in the data set “in vitro [3]” (Table 3) it was over 20 µM; in the data set “in vitro [3]” (cFib assay), over 20 µM; in the data set “in vitro [3]” (cFib assay, Table 6), over 20 µM; in data set [5] (Table 6, read-out: Fibrin IC50 (uM) (Suppl. Table 7)), 0.03 µM; in data set [5] (Table 7, read-out: fib_IC50) it was 0.018 µM. The IC50 in data set [6] (Table 6, read-out: LPS IC50 (uM) (Suppl. Table 7)) is 18 µM; in data set [6] (Table 7, read-out: LPS_IC50), 0.002 µM; with primary rat microglia [7] it was over 20 µM; in the data set on primary rat microglia [7] (Table 6) it was over 20 µM. In addition, in the data set on primary rat microglia [4], the “Fibrin % cell toxicity” value was 2% and 4%. Further, the “LPS % cell toxicity” value with primary rat microglia [7] was 2% and 1% and 5%.

As for `c1ccc2[nH]c(-c3cscn3)nc2c1` [Thiabendazole, reference compound], the “Quadrant (FIG. 5b)” value in data set [1] (setting [8]) is given as “Q2”; in data set [1] (Table 1, screen at 10 μM) it was “Q2”; in data set [1] (setting [11]), “Q2”. The inhibition at 10 µM was over 50% in data set [1] (setting [9]), over 50% in data set [1] (setting [10]), 58% in data set [5] and 62% in data set [6] (48 h). The IC50 (in “in vitro [2]”; in “in vitro [3]” (cFib assay); in data set [5] (setting [12]); in data set [5] (setting [13]); in data set [5] (setting [14]); in data set [6] (setting [15])) was over 20 µM each time. For the same compound, the IC50 in data set [6] (setting [16]) and in data set [6] (setting [17]) was over 20 µM in each case. In addition, the “Fibrin % cell toxicity” value with primary rat microglia [4] turned out to be 1%. In addition, the “LPS % cell toxicity” value in the data set with primary rat microglia [7] was determined as 1%.

On to `Cc1cccc(C)c1NC(=O)c1ccccc1C(=O)O` [Ftaxilide, reference compound], for which the “Quadrant (FIG. 5b)” value in data set [1] (setting [8]) is “Q3”; in data set [1] (Table 1, screen at 10 μM), “Q3”; in data set [1] (setting [11]), “Q3”. Moreover, the inhibition at 10 µM in data set [1] (setting [9]) was over 50%; in data set [1] (setting [10]), over 50%; in data set [5], 78%; in data set [6] (48 h) it was 42%. Moreover, the IC50 (in “in vitro [2]”; in “in vitro [3]” (cFib assay); in data set [5] (setting [12]); in data set [5] (setting [13]); in data set [5] (setting [14]); in data set [6] (setting [15])) was over 20 µM throughout. The IC50 in data set [6] (setting [16]) and in data set [6] (setting [17]) was over 20 µM in each case. Also, the “Fibrin % cell toxicity” value in the data set with primary rat microglia [4] was 2%. For the same compound, the “LPS % cell toxicity” value in the data set with primary rat microglia [7] turned out to be 1%.

With `Cc1cc(NC(=O)C2=C(O)c3ccccc3S(=O)(=O)N2C)no1` [Isoxicam, reference compound], the “Quadrant (FIG. 5b)” value in data set [1] (setting [8]) is reported as “Q3”; in data set [1] (Table 1, screen at 10 μM), “Q3”; in data set [1] (Table 3, screen at 10 μM) it was “Q3”; in data set [1] (setting [11]), “Q3”. Also, the inhibition at 10 µM was over 50% in data set [1] (setting [18]), over 50% in data set [1] (setting [9]), 67% in data set [5] and 30% in data set [6] (48 h). For the same compound, the IC50 is over 20 µM in the data set “in vitro [2]”; over 20 µM in “in vitro [3]” (Table 3); over 20 µM in the data set “in vitro [3]” (cFib assay); 7 µM in data set [5] (setting [12]); 7 µM in data set [5] (setting [19]); 7 µM in data set [5] (setting [13]). Also, the IC50 was 7 µM in data set [5] (setting [14]); over 20 µM in data set [6] (setting [15]); over 20 µM in data set [6] (setting [16]); over 20 µM in data set [6] (setting [20]); over 20 µM in data set [6] (setting [17]); over 20 µM in the data set on primary rat microglia [7]. In addition, the “Fibrin % cell toxicity” value in the data set with primary rat microglia [4] is recorded as 1%. The “Fibrin Selectivity” value in data set [5] was 3. The “Fibrin Selectivity (LOG10)” value in data set [5] was 0.43. The “LPS % cell toxicity” value with primary rat microglia [7] is given as 1%.
